Data published in patent publication US5922767A, “Substituted benzylurea derivatives and medicine containing the same” (SS Pharmaceutical Co., Ltd., priority 1996, dated 1999).

Key:
ACAT in J774 cells = target: T1, ACAT in J774 cells (Mus musculus, UniProt Q61263); test: Test for inhibitory activity against ACAT using J774 cells; type: cell-based; conditions: 100 nM of each compound, Mean ± S.D., n = 3, vs DMSO control, read-out: Inhibition rate against ACAT activity in J774 cells
T1 construct: endogenous in cells; host or cells: J774 cells (mouse macrophage-like)
T1 sequence (Q61263 1-540): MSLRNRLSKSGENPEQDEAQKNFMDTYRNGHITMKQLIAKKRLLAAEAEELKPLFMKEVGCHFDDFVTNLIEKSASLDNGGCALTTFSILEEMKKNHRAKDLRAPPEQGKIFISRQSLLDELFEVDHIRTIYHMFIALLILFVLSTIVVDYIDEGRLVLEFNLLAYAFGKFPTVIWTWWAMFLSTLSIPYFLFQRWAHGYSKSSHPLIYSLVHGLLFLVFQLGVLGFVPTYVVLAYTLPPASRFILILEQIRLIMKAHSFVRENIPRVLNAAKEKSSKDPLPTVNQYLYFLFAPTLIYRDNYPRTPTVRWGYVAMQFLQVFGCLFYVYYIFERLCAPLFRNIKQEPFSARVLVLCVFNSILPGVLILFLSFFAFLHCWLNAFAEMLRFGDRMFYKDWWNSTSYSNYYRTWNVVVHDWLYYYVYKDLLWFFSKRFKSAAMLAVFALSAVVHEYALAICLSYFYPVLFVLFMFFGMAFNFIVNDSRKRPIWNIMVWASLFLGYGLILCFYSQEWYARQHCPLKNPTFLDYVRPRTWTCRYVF
Method: i) Test for inhibitory activity against ACAT using J774 cells:
The ACAT activity of J774 cells was measured as the radioactivity of cholesteryl oleate produced from [^14 C]oleic acid and cholesterol which were added to a culture solution.
The extract was dried to solid under reduced pressure. After the resultant residue was then developed (developing solvent: diethyl ether/hexane/acetic acid=80/20/1) by TLC (thin-layer chromatography), the amount of cholesteryl oleate formed was determined by an imaging plate.

[1] = target: T2, ACAT of rat liver microsomes (Rattus norvegicus, UniProt Q7TQM4); test: Test for inhibitory activity against ACAT using rat liver microsomes; type: biochemical; conditions: 5 min; 100 nM of each compound; Mean ± S.D.; n = 3; vs DMSO control; read-out: Inhibition rate against ACAT activity in rat liver microsome
T2 construct: rat liver microsome fraction prepared in accordance with a method known per se; from tissue; host or cells: rat liver microsomes
T2 sequence (Q7TQM4 1-524): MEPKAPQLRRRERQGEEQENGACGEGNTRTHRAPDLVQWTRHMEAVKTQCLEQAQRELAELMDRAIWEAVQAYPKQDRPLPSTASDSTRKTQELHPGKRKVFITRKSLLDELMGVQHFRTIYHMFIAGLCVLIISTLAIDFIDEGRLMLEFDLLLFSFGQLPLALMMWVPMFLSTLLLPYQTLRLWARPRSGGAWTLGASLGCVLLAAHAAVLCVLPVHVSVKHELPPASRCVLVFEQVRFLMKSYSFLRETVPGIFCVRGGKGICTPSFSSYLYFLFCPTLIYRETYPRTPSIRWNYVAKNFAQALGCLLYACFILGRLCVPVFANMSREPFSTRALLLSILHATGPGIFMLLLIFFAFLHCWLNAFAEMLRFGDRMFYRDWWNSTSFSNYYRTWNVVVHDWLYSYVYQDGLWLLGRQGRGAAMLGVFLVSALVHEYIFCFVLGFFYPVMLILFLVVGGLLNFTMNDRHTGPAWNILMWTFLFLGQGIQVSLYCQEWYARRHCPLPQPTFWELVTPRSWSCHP
Method: More specifically, [^14 C]oleoyl-CoA and delipidized BSA were added to a rat liver microsome fraction prepared in accordance with a method known per se in the art to conduct a reaction at 37° C. for 5 minutes. After the reaction, the lipid in the reaction mixture was extracted with hexane, and the extract was dried to solid under reduced pressure.

Structure (SMILES): CC(C)c1cccc(C(C)C)c1NC(=O)NCc1cccc(OCc2ccc([N+](=O)[O-])cc2)c1 [Compound 1, 1-(2,6-diisopropylphenyl)-3-[3-(4-nitrobenzyloxy)benzyl]urea]
- inhibition at 0.1 µM (ACAT in J774 cells): 86.3 ± 1.58%
- inhibition at 0.1 µM [1]: 0%
